Laboratory results published in patent publication US20160168126A1, “CHEMICAL COMPOUNDS” (SYNGENTA LIMITED, priority 2013, published 2016).

Test system: a variety of test species
Assay: Post-emergence herbicidal activity (glasshouse, sprayed 8 days after sowing, evaluated after 13 days)
Type: in vivo
Conditions: scale 0-5
Procedure: Seeds of a variety of test species were sown in standard soil in pots. After 8 days cultivation (post-emergence) under controlled conditions in a glasshouse (at 24/16° C., day/night; 14 hours light; 65% humidity), the plants were sprayed with an aqueous spray solution derived from the formulation of the technical active ingredient in acetone/water (50:50) solution containing 0.5% Tween 20 (polyoxyethelyene sorbitan monolaurate, CAS RN 9005-64-5). The test plants were then grown in a glasshouse under controlled conditions (at 24/16° C., day/night; 14 hours light; 65% humidity) and watered twice daily. After 13 days, the test was evaluated (5=total damage to plant; 0=no damage to plant).

Structure (SMILES) | Post-emergence herbicidal damage score, ABUTH (Abutilon theophrasti) (1000 g/ha) | Post-emergence herbicidal damage score, ALOMY (Alopecurus myosuroides) (1000 g/ha) | Post-emergence herbicidal damage score, AMARE (Amaranthus retroflexus) (1000 g/ha) | Post-emergence herbicidal damage score, ECHCG (Echinochloa crus-galli) (1000 g/ha) | Post-emergence herbicidal damage score, SETFA (Setaria faberi) (1000 g/ha) | Post-emergence herbicidal damage score, ZEAMX (Zea mays) (1000 g/ha) | Post-emergence herbicidal damage score, ABUTH (Abutilon theophrasti) (250 g/ha) | Post-emergence herbicidal damage score, ALOMY (Alopecurus myosuroides) (250 g/ha) | Post-emergence herbicidal damage score, AMARE (Amaranthus retroflexus) (250 g/ha) | Post-emergence herbicidal damage score, ECHCG (Echinochloa crus-galli) (250 g/ha) | Post-emergence herbicidal damage score, SETFA (Setaria faberi) (250 g/ha) | Post-emergence herbicidal damage score, ZEAMX (Zea mays) (250 g/ha)
CC1=C(Cl)C(O)N(c2cc(C(F)(F)F)n(C)n2)C1=O (stereo not drawn) [Compound B3] | 5 | 5 | 5 | 5 | 4 | 1 |  |  |  |  |  | 
CC1=C(Cl)C(O)N(c2cc(C(F)(F)C(F)(F)F)n(C)n2)C1=O (stereo not drawn) [Compound B4] | 5 | 4 | 5 | 4 | 3 | 0 |  |  |  |  |  | 
CC1=C(Cl)C(O)N(c2cc(C(C)C)n(C)n2)C1=O (stereo not drawn) [Compound B5] |  |  |  |  |  |  | 5 | 4 | 5 | 5 | 4 | 3
C=CCC(C)(C)c1cc(N2C(=O)C(C)=C(Cl)C2O)nn1C (stereo not drawn) [Compound B6, 3-chloro-1-[5-(1,1-dimethylbut-3-enyl)-1-methyl-pyrazol-3-yl]-2-hydroxy-4-methyl-2H-pyrrol-5-one] | 5 | 5 | 5 | 5 | 5 | 2 |  |  |  |  |  | 
CC(C)=Cc1cc(N2C(=O)C(C)=C(Cl)C2O)nn1C (stereo not drawn) [Compound B7, 3-chloro-2-hydroxy-4-methyl-1-[1-methyl-5-(2-methylprop-1-enyl)pyrazol-3-yl]-2H-pyrrol-5-one] | 4 | 0 | 3 | 1 | 5 | 2 |  |  |  |  |  | 
CC1=C(Cl)C(O)N(c2cc(I)n(C)n2)C1=O (stereo not drawn) [Compound B8, 3-chloro-2-hydroxy-1-(5-iodo-1-methyl-pyrazol-3-yl)-4-methyl-2H-pyrrol-5-one] | 5 | 3 | 5 | 4 | 5 | 1 |  |  |  |  |  | 
CC1=C(Cl)C(O)N(c2cc(Cl)n(C)n2)C1=O (stereo not drawn) [Compound B9] | 5 | 4 | 5 | 5 | 5 | 1 |  |  |  |  |  | 
CC(C)=CCc1cc(N2C(=O)C(C)=C(Cl)C2O)nn1C (stereo not drawn) [Compound B10, 3-chloro-2-hydroxy-4-methyl-1-[1-methyl-5-(3-methylbut-2-enyl)pyrazol-3-yl]-2H-pyrrol-5-one] | 2 | 0 | 0 | 2 | 3 | 0 |  |  |  |  |  | 
CC1=C(Cl)C(O)N(c2cc(/C=C/C(C)(C)C)n(C)n2)C1=O (stereo not drawn) [Compound B11] | 0 | 0 | 0 | 0 | 0 | 0 |  |  |  |  |  | 
CC1=C(Cl)C(O)N(c2cc(CCC(C)C)n(C)n2)C1=O (stereo not drawn) [Compound B12] | 1 | 0 | 0 | 0 | 0 | 0 |  |  |  |  |  | 
CSc1cc(N2C(=O)C(C)=C(Cl)C2O)nn1C (stereo not drawn) [Compound B17] | 4 | 2 | 3 | 4 | 5 | 1 |  |  |  |  |  | 
CC1=C(Cl)C(O)N(c2nn(C)c3c2CCC3(C)C)C1=O (stereo not drawn) [Compound B18] | 5 | 4 | 5 | 5 | 5 | 4 |  |  |  |  |  | 
CC1=C(Cl)C(O)N(c2cc(S(C)(=O)=O)n(C)n2)C1=O (stereo not drawn) [Compound B20] | 5 | 3 | 5 | 4 | 5 | 0 |  |  |  |  |  | 
CC1=C(Cl)C(O)N(c2cc(C(C)(C)C#N)n(C)n2)C1=O (stereo not drawn) [Compound B23] | 4 | 3 | 5 | 5 | 4 | 1 |  |  |  |  |  | 
C/C=C\c1cc(N2C(=O)C(C)=C(Cl)C2O)nn1C (stereo not drawn) [Compound B24] | 5 | 3 | 5 | 4 | 5 | 1 |  |  |  |  |  | 
C=C(C)c1cc(N2C(=O)C(C)=C(Cl)C2O)nn1C (stereo not drawn) [Compound B25] | 5 | 4 | 5 | 5 | 5 | 2 |  |  |  |  |  | 
CC1=C(Cl)C(O)N(c2cc([S+](C)[O-])n(C)n2)C1=O (stereo not drawn) [Compound B26] | 5 | 4 | 5 | 5 | 5 | 4 |  |  |  |  |  | 
CC(C)=C(C)c1cc(N2C(=O)C(C)=C(Cl)C2O)nn1C (stereo not drawn) [Compound B27] | 4 | 1 | 1 | 0 | 3 | 0 |  |  |  |  |  | 
CC1=C(Cl)C(O)N(c2nn(C)c3c2CCCCC3(C)C)C1=O (stereo not drawn) [Compound B28] | 4 | 2 | 4 | 3 | 3 | 1 |  |  |  |  |  | 
